Source: US9359358B2, “Cyclohexyl azetidine derivatives as JAK inhibitors” (Incyte Holdings Corporation, priority 2011, dated 2016)

How the values were obtained:
human JAK1 = biological target: T1, human JAK1 (Homo sapiens, UniProt P23458); experiment: In Vitro JAK Kinase Assay (HTRF, phosphorylation of a biotinylated peptide), JAK1; assay type: biochemical; settings: Table 5; catalytic domain a.a. 837-1142, assay of Example A
T1 construct: human JAK1 (a.a. 837-1142); His tag (N); made in house; host or cells: insect cells (baculovirus)
T1 sequence (P23458 849-1154): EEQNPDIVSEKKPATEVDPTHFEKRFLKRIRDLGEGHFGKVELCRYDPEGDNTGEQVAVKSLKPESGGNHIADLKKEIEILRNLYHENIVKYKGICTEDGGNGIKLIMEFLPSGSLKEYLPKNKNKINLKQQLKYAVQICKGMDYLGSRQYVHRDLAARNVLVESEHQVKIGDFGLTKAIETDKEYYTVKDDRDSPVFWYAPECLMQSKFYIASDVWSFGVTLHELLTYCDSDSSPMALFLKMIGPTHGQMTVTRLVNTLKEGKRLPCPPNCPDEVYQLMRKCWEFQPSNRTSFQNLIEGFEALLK
Procedure, shortened: (§1)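 HTRF detection (SA-APC plus Eu-labeled anti-phosphotyrosine Py20, 40 min after EDTA stop) quantified biotinylated-peptide phosphorylation. Kinase reactions with human JAK1 or JAK2 catalytic domains lasted 1 h at room temperature.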

human JAK2 = biological target: T2, human JAK2 (Homo sapiens, UniProt O60674); experiment: In Vitro JAK Kinase Assay (HTRF, phosphorylation of a biotinylated peptide), JAK2; assay type: biochemical; settings: Table 5; assay of Example A
T2 construct: JAK2 (a.a. 828-1132); His tag (N); made in house; host or cells: insect cells (baculovirus)
T2 sequence (O60674 828-1132): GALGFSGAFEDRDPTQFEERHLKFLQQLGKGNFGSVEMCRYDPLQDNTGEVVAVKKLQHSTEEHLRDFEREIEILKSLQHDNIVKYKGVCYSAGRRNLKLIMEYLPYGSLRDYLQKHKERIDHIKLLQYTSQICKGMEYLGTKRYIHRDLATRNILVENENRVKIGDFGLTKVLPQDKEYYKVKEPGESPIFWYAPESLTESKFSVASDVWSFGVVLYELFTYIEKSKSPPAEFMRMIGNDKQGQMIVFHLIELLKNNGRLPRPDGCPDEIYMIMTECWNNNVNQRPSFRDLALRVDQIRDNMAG
Procedure, shortened: as §1

IC50 (human JAK1) [nM]	JAK2/JAK1 IC50 ratio (human JAK2)	Structure (SMILES)
< 10	≧10	CC1(NCc2cc(O[C@H]3CC[C@@H](N4CC(CC#N)(n5cc(-c6ncnc7[nH]ccc67)cn5)C4)CC3)nc(C(F)(F)F)c2)COC1 [Example 98, {1-(cis-4-{[4-{[(3-methyloxetan-3-yl)amino]methyl}-6-(trifluoromethyl)pyridin-2-yl]oxy}cyclohexyl)-3-[4-(7H-pyrrolo[2,3-d]pyrimidin-4-yl)-1H-pyrazol-1-yl]azetidin-3-yl}acetonitrile tetrakis(trifluoroacetate)]
< 10	≧10	N#CCC1(n2cc(-c3ncnc4[nH]ccc34)cn2)CN([C@H]2CC[C@@H](Oc3cc(Cn4ccnc4)cc(C(F)(F)F)n3)CC2)C1 [Example 99, {1-(cis-4-{[4-(1H-imidazol-1-ylmethyl)-6-(trifluoromethyl)pyridin-2-yl]oxy}cyclohexyl)-3-[4-(7H-pyrrolo[2,3-d]pyrimidin-4-yl)-1H-pyrazol-1-yl]azetidin-3-yl}acetonitrile tetrakis(trifluoroacetate)]
< 10	≧10	N#CCC1(n2cc(-c3ncnc4[nH]ccc34)cn2)CN([C@H]2CC[C@@H](Oc3cc(Cn4cccn4)cc(C(F)(F)F)n3)CC2)C1 [Example 100, {1-(cis-4-{[4-(1H-pyrazol-1-ylmethyl)-6-(trifluoromethyl)pyridin-2-yl]oxy}cyclohexyl)-3-[4-(7H-pyrrolo[2,3-d]pyrimidin-4-yl)-1H-pyrazol-1-yl]azetidin-3-yl}acetonitrile tris(trifluoroacetate)]
